Where two headings read alike, the source gives them in different places.
Key:
human EHMT2 913-1193 = target: T1, human EHMT2 913-1193 (Homo sapiens, UniProt Q96KQ7); experiment: EHMT2 enzyme assay on histone peptide substrate (EHMT2 PEP); type: biochemical; conditions: read-out: EHMT2 PEP (IC50 μM)
T1 construct: recombinant purified human EHMT2 913-1193, Viva; purchased Viva
T1 sequence (Q96KQ7 913-1193): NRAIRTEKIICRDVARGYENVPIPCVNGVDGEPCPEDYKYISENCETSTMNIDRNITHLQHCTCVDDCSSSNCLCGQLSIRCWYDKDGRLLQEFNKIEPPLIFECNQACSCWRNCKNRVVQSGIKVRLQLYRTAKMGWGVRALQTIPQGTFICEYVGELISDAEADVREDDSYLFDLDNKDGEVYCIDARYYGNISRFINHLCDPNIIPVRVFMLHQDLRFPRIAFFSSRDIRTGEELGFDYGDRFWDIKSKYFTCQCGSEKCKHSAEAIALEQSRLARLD
Procedure, shortened: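 Radiometric methyltransferase read-out: ^3H-methyl transfer from ^3H-SAM onto biotinylated histone peptide, captured on streptavidin Flashplates after 60 min reaction at room temperature. Enzyme 0.031 nM, preincubated 30 min with inhibitor; buffer 20 mM Bicine pH 7.5 with 1 mM TCEP; top compound concentration 50 μM final, 2% DMSO.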

EHMT1 = target: T2, EHMT1 (Homo sapiens, UniProt Q9H9B1); experiment: EHMT1 enzyme assay on peptide substrate (EHMT1 PEP); type: biochemical; conditions: read-out: EHMT1 PEP (IC50 μM)
T2 sequence (Q9H9B1 1-1298): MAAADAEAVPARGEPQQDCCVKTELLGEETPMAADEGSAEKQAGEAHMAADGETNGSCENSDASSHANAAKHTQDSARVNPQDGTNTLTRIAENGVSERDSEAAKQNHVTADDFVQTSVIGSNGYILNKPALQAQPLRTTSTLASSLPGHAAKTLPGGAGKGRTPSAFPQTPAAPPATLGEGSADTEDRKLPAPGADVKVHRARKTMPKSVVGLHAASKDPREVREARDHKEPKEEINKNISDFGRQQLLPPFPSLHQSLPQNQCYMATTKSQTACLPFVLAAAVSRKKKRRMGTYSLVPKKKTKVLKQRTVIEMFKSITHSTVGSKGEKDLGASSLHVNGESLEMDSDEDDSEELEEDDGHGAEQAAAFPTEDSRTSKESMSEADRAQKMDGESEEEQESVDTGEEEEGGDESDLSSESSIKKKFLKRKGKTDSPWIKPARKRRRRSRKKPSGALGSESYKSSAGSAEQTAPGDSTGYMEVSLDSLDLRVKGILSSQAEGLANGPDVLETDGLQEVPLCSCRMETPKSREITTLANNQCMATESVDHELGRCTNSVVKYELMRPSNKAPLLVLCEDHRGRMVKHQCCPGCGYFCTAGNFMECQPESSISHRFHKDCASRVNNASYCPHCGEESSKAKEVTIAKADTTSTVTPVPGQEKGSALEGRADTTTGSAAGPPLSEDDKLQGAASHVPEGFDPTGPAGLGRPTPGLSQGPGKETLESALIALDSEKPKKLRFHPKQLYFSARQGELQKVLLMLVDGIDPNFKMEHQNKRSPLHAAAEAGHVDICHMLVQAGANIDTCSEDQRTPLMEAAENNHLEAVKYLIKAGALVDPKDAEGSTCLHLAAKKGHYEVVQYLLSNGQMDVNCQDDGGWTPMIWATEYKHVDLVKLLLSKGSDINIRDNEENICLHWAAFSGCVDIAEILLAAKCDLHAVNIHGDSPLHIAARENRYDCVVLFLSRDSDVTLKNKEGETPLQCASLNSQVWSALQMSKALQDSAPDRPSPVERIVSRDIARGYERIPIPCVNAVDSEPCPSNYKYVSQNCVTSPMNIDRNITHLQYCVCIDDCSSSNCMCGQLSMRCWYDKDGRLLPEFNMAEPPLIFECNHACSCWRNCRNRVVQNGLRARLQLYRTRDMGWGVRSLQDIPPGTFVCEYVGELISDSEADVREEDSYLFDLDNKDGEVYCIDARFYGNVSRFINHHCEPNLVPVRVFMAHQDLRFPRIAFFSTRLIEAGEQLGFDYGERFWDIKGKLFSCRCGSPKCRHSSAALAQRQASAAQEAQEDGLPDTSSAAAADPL

IC50 (human EHMT2 913-1193; Table III) [µM]	IC50 (EHMT1; Table III) [µM]	IC50 (human EHMT2 913-1193; Table II) [µM]	IC50 (EHMT1; Table II) [µM]	Compound
1 to 10	1 to 10			CNc1ccnc(Nc2ccc(OC)c(OC[C@H](O)CN3CCCC3)c2)n1 (single isomer, unassigned) [Compound 376]
1 to 10	> 10			CNc1ccnc(Nc2ccc(OC)c(OC[C@@H](O)CN3CCCC3)c2)n1 (single isomer, unassigned) [Compound 377]
1 to 10	0.1 to 1			CNc1ccnc(Nc2ccc(OC)c(OCC3CCN(C)C3)c2)n1 (single isomer, unassigned) [Compound 415]
< 0.1	< 0.1			CNc1ccnc(Nc2ccc(OC)c(OCC3CCN(C)C3)c2)n1 (single isomer, unassigned) [Compound 416]
0.1 to 1	0.1 to 1			CNc1cc(C)nc(Nc2ccc(OC)c(OCC3CCN(C)C3)c2)n1 (single isomer, unassigned) [Compound 417]
< 0.1	< 0.1			CNc1cc(C)nc(Nc2ccc(OC)c(OCC3CCN(C)C3)c2)n1 (single isomer, unassigned) [Compound 418]
		< 0.1	< 0.1	CNc1ccnc(Nc2ccc(OC)c(OCCCN3CCCC3)c2)n1 [Compound 1, N^2-(4-methoxy-3-(3-(pyrrolidin-1-yl)propoxy)phenyl)-N^4-methylpyrimidine-2,4-diamine]
		< 0.1	< 0.1	COc1ccc(Nc2nccc(NCC3CCN(CC(F)F)CC3)n2)cc1OCCCN1CCCC1 [Compound 2, N^4-((1-(2,2-difluoroethyl)piperidin-4-yl)methyl)-N^2-(4-methoxy-3-(3-(pyrrolidin-1-yl)propoxy)phenyl)pyrimidine-2,4-diamine]
		< 0.1	< 0.1	COc1ccc(Nc2nccc(NCC3CCOCC3)n2)cc1OCCCN1CCCC1 [Compound 3, N^2-(4-methoxy-3-(3-(pyrrolidin-1-yl)propoxy)phenyl)-N^4-((tetrahydro-2H-pyran-4-yl)methyl)pyrimidine-2,4-diamine]
		< 0.1	0.1 to 1	COc1ccc(Nc2nccc(NCC3CCN(CC(F)(F)F)CC3)n2)cc1OCCCN1CCCC1 [Compound 4, N^2-(4-methoxy-3-(3-(pyrrolidin-1-yl)propoxy)phenyl)-N^4-((1-(2,2,2-trifluoroethyl)piperidin-4-yl)methyl)pyrimidine-2,4-diamine]
		0.1 to 1	0.1 to 1	COc1ccc(Nc2nccc(NC3CCOCC3)n2)cc1OCCCN1CCCC1 [Compound 5, N^2-(4-methoxy-3-(3-(pyrrolidin-1-yl)propoxy)phenyl)-N^4-(tetrahydro-2H-pyran-4-yl)pyrimidine-2,4-diamine]
		0.1 to 1	0.1 to 1	COc1ccc(Nc2nccc(NCC(=O)N3CCOCC3)n2)cc1OCCCN1CCCC1 [Compound 51]
		1 to 10	1 to 10	COc1ccc(Nc2nccc(NCC(=O)N(C)c3ccccc3)n2)cc1OCCCN1CCCC1 [Compound 52]
		1 to 10	1 to 10	COc1ccc(Nc2nccc(N3Cc4cn[nH]c4C3)n2)cc1OCCCN1CCCC1 [Compound 53]
		0.1 to 1	0.1 to 1	COc1ccc(Nc2nccc(NC3CCN(C(C)=O)CC3)n2)cc1OCCCN1CCCC1 [Compound 54]
		0.1 to 1	0.1 to 1	COc1ccc(Nc2ncc(C)c(NCC3CCN(C(C)=O)CC3)n2)cc1OCCCN1CCCC1 [Compound 55]
		1 to 10	1 to 10	COc1ccc(Nc2nccc(N(C)Cc3ccncc3)n2)cc1OCCCN1CCCC1 [Compound 56]
		1 to 10	1 to 10	COc1ccc(Nc2nccc(NCC3CCN(C(C)=O)CC3)n2)cc1COCCN1CC(F)C1 [Compound 57]
		0.1 to 1	0.1 to 1	c1cc(Nc2nccc(NCC3CCNCC3)n2)cc(OCCCN2CCCC2)c1 [Compound 88]
		< 0.1	< 0.1	COc1ccc(Nc2nccc(NCC3CCNCC3)n2)cc1OCCCN1CCCC1 [Compound 90]

— patent publication US20210198277A1, “AMINE-SUBSTITUTED ARYL OR HETEROARYL COMPOUNDS” (Epizyme, Inc., priority 2016, published 2021)
